Experiments:
PC3 = assay: IC50 in PC3 cells; type: cell-based; conditions: Homo sapiens, PC-3, read-out: IC50 PC2, Table 2; head prints PC2, text PC3
Method: (§1) Exemplary compounds of the presently-disclosed subject matter were assessed for activity, including clearance, potency, and selectivity. Results from studies are compiled in Tables 2-4.
(§2) Desirable clearance was identified at lower values of mL hr^−1kg^−1 (e.g., about ≤10 mL hr^−1 kg^−1), desirable potency was identified at lower values of IC50 (e.g., about ≤10 nM in TC32 cells), and desired selectivity was identified at higher ratios of IC50 in PC3/IC50 in TC32 (e.g. about >10).

TC32 cells = assay: Potency IC50 in TC32 cells and selectivity; type: cell-based; conditions: Homo sapiens, TC-32, Table 2, read-out: IC50 TC32
Method: as §1, §2

log P = type: physicochemical

Row | IC50 (PC3) | IC50 (TC32 cells) | logP (log P; Table 2) | Compound | log P (log P; Table 2) | log P (log P; Table 3)
1 | 300 nM | 35.6 nM | 1.28 | COc1cc2cc(C(=O)NCCON=C([C@@H](O)[C@@H](C)O)[C@@H](OC)[C@@H]3Cc4cc5cc(O[C@H]6C[C@@H](O[C@H]7C[C@@H](O)[C@H](O)[C@@H](C)O7)[C@H](O)[C@@H](C)O6)c(C)c(O)c5c(O)c4C(=O)[C@H]3O[C@H]3C[C@@H](O[C@H]4C[C@@H](O[C@H]5C[C@](C)(O)[C@H](O)[C@@H](C)O5)[C@@H](O)[C@@H](C)O4)[C@H](O)[C@@H](C)O3)[nH]c2cc1OC [YL-B158] | – | –
2 | 3000 nM | 2840 nM | -0.56 | CO[C@H](C(=NOCCNC(=O)c1nnc2nc(C)cc(C)n12)[C@@H](O)[C@@H](C)O)[C@@H]1Cc2cc3cc(O[C@H]4C[C@@H](O[C@H]5C[C@@H](O)[C@H](O)[C@@H](C)O5)[C@H](O)[C@@H](C)O4)c(C)c(O)c3c(O)c2C(=O)[C@H]1O[C@H]1C[C@@H](O[C@H]2C[C@@H](O[C@H]3C[C@](C)(O)[C@H](O)[C@@H](C)O3)[C@@H](O)[C@@H](C)O2)[C@H](O)[C@@H](C)O1 [YL-B162] | – | –
3 | 32.3 nM | 2.33 nM | 1.56 | COc1ccc2[nH]c(C(=O)NCCON=C([C@@H](O)[C@@H](C)O)[C@@H](OC)[C@@H]3Cc4cc5cc(O[C@H]6C[C@@H](O[C@H]7C[C@@H](O)[C@H](O)[C@@H](C)O7)[C@H](O)[C@@H](C)O6)c(C)c(O)c5c(O)c4C(=O)[C@H]3O[C@H]3C[C@@H](O[C@H]4C[C@@H](O[C@H]5C[C@](C)(O)[C@H](O)[C@@H](C)O5)[C@@H](O)[C@@H](C)O4)[C@H](O)[C@@H](C)O3)cc2c1 [YL-B166] | – | –
4 | 48.4 nM | 15.1 nM | 2.83 | CO[C@H](C(=NOCCNC(=O)c1cc2cc(Cl)cc(Cl)c2[nH]1)[C@@H](O)[C@@H](C)O)[C@@H]1Cc2cc3cc(O[C@H]4C[C@@H](O[C@H]5C[C@@H](O)[C@H](O)[C@@H](C)O5)[C@H](O)[C@@H](C)O4)c(C)c(O)c3c(O)c2C(=O)[C@H]1O[C@H]1C[C@@H](O[C@H]2C[C@@H](O[C@H]3C[C@](C)(O)[C@H](O)[C@@H](C)O3)[C@@H](O)[C@@H](C)O2)[C@H](O)[C@@H](C)O1 [YL-B167] | – | –
5 | 1020 nM | 69.8 nM | 2.1 | CO[C@H](C(=NOCCNC(=O)c1cc2cc(-c3cnn(C)c3)ccc2[nH]1)[C@@H](O)[C@@H](C)O)[C@@H]1Cc2cc3cc(O[C@H]4C[C@@H](O[C@H]5C[C@@H](O)[C@H](O)[C@@H](C)O5)[C@H](O)[C@@H](C)O4)c(C)c(O)c3c(O)c2C(=O)[C@H]1O[C@H]1C[C@@H](O[C@H]2C[C@@H](O[C@H]3C[C@](C)(O)[C@H](O)[C@@H](C)O3)[C@@H](O)[C@@H](C)O2)[C@H](O)[C@@H](C)O1 [YL-C20] | – | –
6 | – | – | – | CO[C@H](C(=NOCC(=O)N[C@@H](Cc1c[nH]c2ccccc12)C(=O)Nc1ccc2scnc2c1)[C@@H](O)[C@@H](C)O)[C@@H]1Cc2cc3cc(O[C@H]4C[C@@H](O[C@H]5C[C@@H](O)[C@H](O)[C@@H](C)O5)[C@H](O)[C@@H](C)O4)c(C)c(O)c3c(O)c2C(=O)[C@H]1O[C@H]1C[C@@H](O[C@H]2C[C@@H](O[C@H]3C[C@](C)(O)[C@H](O)[C@@H](C)O3)[C@@H](O)[C@@H](C)O2)[C@H](O)[C@@H](C)O1 [YL-C39] | 2.56 | –
7 | 8.07 nM | 6.41 nM | 1.87 | CO[C@H](C(=NOCc1ccc2scnc2c1)[C@@H](O)[C@@H](C)O)[C@@H]1Cc2cc3cc(O[C@H]4C[C@@H](O[C@H]5C[C@@H](O)[C@H](O)[C@@H](C)O5)[C@H](O)[C@@H](C)O4)c(C)c(O)c3c(O)c2C(=O)[C@H]1O[C@H]1C[C@@H](O[C@H]2C[C@@H](O[C@H]3C[C@](C)(O)[C@H](O)[C@@H](C)O3)[C@@H](O)[C@@H](C)O2)[C@H](O)[C@@H](C)O1 [YL-C52] | – | –
8 | – | – | – | CO[C@H](C(=NOC[C@@H](Cc1c[nH]c2ccccc12)NC(=O)c1ccc2scnc2c1)[C@@H](O)[C@@H](C)O)[C@@H]1Cc2cc3cc(O[C@H]4C[C@@H](O[C@H]5C[C@@H](O)[C@H](O)[C@@H](C)O5)[C@H](O)[C@@H](C)O4)c(C)c(O)c3c(O)c2C(=O)[C@H]1O[C@H]1C[C@@H](O[C@H]2C[C@@H](O[C@H]3C[C@](C)(O)[C@H](O)[C@@H](C)O3)[C@@H](O)[C@@H](C)O2)[C@H](O)[C@@H](C)O1 [YL-C53] | 3.26 | –
9 | – | – | – | COC(C(=NOCC(Cc1c[nH]c2ccccc12)NC(=O)c1cc2cc(Cl)ccc2[nH]1)C(O)C(C)O)C1Cc2cc3cc(OC4CC(OC5CC(O)C(O)C(C)O5)C(O)C(C)O4)c(C)c(O)c3c(O)c2C(=O)C1OC1CC(OC2CC(OC3CC(C)(O)C(O)C(C)O3)C(O)C(C)O2)C(O)C(C)O1 (centres unmarked) [YL-C54] | 4.34 | –
10 | – | – | – | COC(C(=NOCC(Cc1c[nH]c2ccccc12)NC(=O)c1ccc2scnc2c1)C(O)C(C)O)C1Cc2cc3cc(OC4CC(OC5CC(O)C(O)C(C)O5)C(O)C(C)O4)c(C)c(O)c3c(O)c2C(=O)C1OC1CC(OC2CC(OC3CC(C)(O)C(O)C(C)O3)C(O)C(C)O2)C(O)C(C)O1 (centres unmarked) [YL-C55] | 3.26 | –
11 | – | – | – | CO[C@H](C(=NOCCNC(=O)c1c(-c2ccc(Cl)cc2)c2cc(Cl)ccc2n1C)[C@@H](O)[C@@H](C)O)[C@@H]1Cc2cc3cc(O[C@H]4C[C@@H](O[C@H]5C[C@@H](O)[C@H](O)[C@@H](C)O5)[C@H](O)[C@@H](C)O4)c(C)c(O)c3c(O)c2C(=O)[C@H]1O[C@H]1C[C@@H](O[C@H]2C[C@@H](O[C@H]3C[C@](C)(O)[C@H](O)[C@@H](C)O3)[C@@H](O)[C@@H](C)O2)[C@H](O)[C@@H](C)O1 [YL-C98] | 4.6 | –
12 | – | – | – | COC(C(=NOCCNC(=O)c1c(-c2ccc(Cl)cc2)c2cc(Cl)ccc2n1CC(C)C)C(O)C(C)O)C1Cc2cc3cc(OC4CC(OC5CC(O)C(O)C(C)O5)C(O)C(C)O4)c(C)c(O)c3c(O)c2C(=O)C1OC1CC(OC2CC(OC3CC(C)(O)C(O)C(C)O3)C(O)C(C)O2)C(O)C(C)O1 (centres unmarked) [YL-C100] | 6.21 | –
13 | – | – | – | COC(C(=NOCCNC(=O)c1[nH]c2ccc(Cl)cc2c1-c1ccc(F)c(Cl)c1)C(O)C(C)O)C1Cc2cc3cc(OC4CC(OC5CC(O)C(O)C(C)O5)C(O)C(C)O4)c(C)c(O)c3c(O)c2C(=O)C1OC1CC(OC2CC(OC3CC(C)(O)C(O)C(C)O3)C(O)C(C)O2)C(O)C(C)O1 (centres unmarked) [YL-C116] | 4.19 | 4.19

Row | Compound | IC50 (PC3) | IC50 (TC32 cells) | logP (log P; Table 2) | log P (log P; Table 2) | log P (log P; Table 3)
14 | COC(C(=NOCC(=O)Nc1cccc2cnccc12)C(O)C(C)O)C1Cc2cc3cc(OC4CC(OC5CC(O)C(O)C(C)O5)C(O)C(C)O4)c(C)c(O)c3c(O)c2C(=O)C1OC1CC(OC2CC(OC3CC(C)(O)C(O)C(C)O3)C(O)C(C)O2)C(O)C(C)O1 (centres unmarked) [YL-B160] | 1130 nM | 86.1 nM | 1.3 | – | –
15 | COC(C(=NOCCNC(=O)c1cc2cc(O)ccc2[nH]1)C(O)C(C)O)C1Cc2cc3cc(OC4CC(OC5CC(O)C(O)C(C)O5)C(O)C(C)O4)c(C)c(O)c3c(O)c2C(=O)C1OC1CC(OC2CC(OC3CC(C)(O)C(O)C(C)O3)C(O)C(C)O2)C(O)C(C)O1 (centres unmarked) [YL-B170] | 365 nM | 70.7 nM | 1.02 | – | –
16 | COC(C(=NOCCNC(=O)c1cc2cc(C(F)(F)F)ccc2[nH]1)C(O)C(C)O)C1Cc2cc3cc(OC4CC(OC5CC(O)C(O)C(C)O5)C(O)C(C)O4)c(C)c(O)c3c(O)c2C(=O)C1OC1CC(OC2CC(OC3CC(C)(O)C(O)C(C)O3)C(O)C(C)O2)C(O)C(C)O1 (centres unmarked) [YL-B175] | 1.5 nM | 1.2 nM | 2.54 | – | –
17 | COC(C(=NOCCNC(=O)c1cc2c(=O)n(C)c(=O)n(C)c2[nH]1)C(O)C(C)O)C1Cc2cc3cc(OC4CC(OC5CC(O)C(O)C(C)O5)C(O)C(C)O4)c(C)c(O)c3c(O)c2C(=O)C1OC1CC(OC2CC(OC3CC(C)(O)C(O)C(C)O3)C(O)C(C)O2)C(O)C(C)O1 (centres unmarked) [YL-B179] | 3000 nM | 679 nM | -0.02 | – | –

Reference: patent publication US20260297121A1, “MITHRAMYCIN (MTM) 2’ OXIMES” (University of Kentucky Research Foundation, priority 2023, published 2026)
